Values of other authors in patent US20120245201A1, “Isopropylphenidate for Treatment of Attention-Deficit/Hyperactivity Disorder and Fatigue-Related Disorders and Conditions” (priority 2009, published 2012).

How the values were obtained:
[1] = metabolite after MPH; cited from earlier work
mouse model = conditions: 5 mg/kg i.p.; cited from earlier work

Compound | blood concentrations relative to the parent compound [1] | motor activity (mouse model)
O=C(O)C(c1ccccc1)C1CCCCN1 (centres unmarked) [RA, ritalinic acid] | 30-60 times | 
CCOC(=O)C(c1ccccc1)C1CCCCN1 (stereo not drawn) [d-EPH] |  | significant motor activity
